Source: patent US20200022964A1, “COMPOSITIONS AND METHODS FOR TREATMENT OF INFLAMMATORY AUTOIMMUNE DISEASES” (New York University, priority 2018, published 2020)

Key:
TNF-α/NF-κB pathway = assay: TNF-tg:NF-κB-Luc double mutant mice, luciferase imaging by IVIS; assay type: in vivo; conditions: for in vivo inhibition of the TNF-α/NF-κB pathway: FFD 2 or 10 mg/kg, TFD 10 or 50 mg/kg orally for 7 days; for TNF-tg:NF-κB activated luciferase in vivo: third round screen, treatment for 7 days
Description: In vitro and in vivo screen of FDA-approved drug library. NF-κB-bla THP-1 cell line in which NF-κB beta-lactamase reporter gene was stably integrated, RAW 264.7 macrophages in which NF-κB luciferase reporter gene was transiently transfected, and TNF-tg:NF-κB-Luc double mutant reporter mice were employed to screen the drug library.
Screening and confirming the drugs' anti-TNF activity in vivo. TNF-tg mice and NF-κB luc mice were purchased from Jackson Laboratory and housed in Skirball Animal Facility of New York University Langone Medical Center. All animal experiments have been approved by Institutional Animal Care and Use Committee (IACUC) of New York University School of Medicine. We generated the TNF-tg/NF-κB-Luc mice by mating TNF-tg mice with NF-κB-Luc mice. After genotypes were confirmed by genotyping and bioluminescence via IVIS, the TNF-tg/NF-κB-Luc mice were orally treated daily with one of the 8 drugs selected in screen two for 7 days. The luciferase activity was detected by IVIS 15 minutes after the injection of D-Luciferin (LUCK-1G, Gold biotechnology).

TNF-α = TNF-α induced cytokine expression and release in RAW264.7 cells (incl. H1R1 siRNA and cPLA2 knockout); assay type: cell-based; conditions: FFD 10 μM; for effect of suppression of H1R1 on the inhibition of TNF-induced cytokine release: RAW264.7 cells with H1R1 siRNAs
Procedure: qRT-PCR. Total RNA was extracted by RNeasy plus mini kit (74106, QIAGEN) and cDNA was synthesized using SuperScript® Reverse Transcriptase (M314C, promega Corporation). SYBR® Green PCR Master Mix (4309155, Applied Biosystems) was used to perform quantitative real-time PCR (qRT-PCR) and the reaction was performed on a StepOnePlus™ real-time PCR Systems (Applied Biosystems). The mRNA expression level of target genes was calculated by ΔΔCT and fold changes of mRNA levels were normalized to GAPDH.
Knock down of H1R1 by siRNA. BMDMs were transfected with siH1R1, or scrambled control siRNA (scRNAi) using lipofectamine 2000 (11668-019, Invitrogen) according to manufacturer's specifications. After 24 hours, supernatants and lysate were collected to detect cytokine secretion and protein expression, respectively.
Knock out of cPAL2 by CRISPR-Cas9. Knockout cells were generated in accordance with a previously published protocol. gRNA was inserted into the lentiCRISPR v2 vector. Packaging the inserted vector into lentivirus was completed by co-transfecting the lentiCRISPR v2, VSVG and ΔR6.7 in 293T cells. After packaging, we transfected the virus into RAW264.7 cells over 8 hours. Puromycin (2 μg/ml) was used to select the stably transfected RAW264.7 cells

M1 and M2 macrophages = assay: Macrophage polarization in vitro (BMDMs) and in vivo (spleen of TNF-α Tg mice); assay type: cell-based; conditions: in vitro BMDMs and spleen of treated TNF-α Tg mice
Procedure: Macrophage polarization. […] INFγ (25 ng/mL) and LPS (250 ng/mL) were added to BMDMs to induce M1 polarization while IL-4(20 ng/mL) was used to induce M2 polarization, with or without adding FFD (1 or 10 μM) or TFD (0.1 or 1μM), and cells were cultured for 24 hours. mRNA were extracted by RNA Mini kit (74106, QIAGEN).
Frozen splenic tissue specimens from TNFα Tg mice treated with or without TFD or FFD were stained and analyzed dual immunofluorescence. All sections were permeabilized with 0.1% NP40 in PBS, and then blocked in 5% donkey serum for 30 min at RT, followed by incubated with anti-IFNg (Th1), anti-IL-4 (Th2), anti-IL17 (Th17) and anti-foxp3 (Treg) diluted in 5% donkey serum at 4° C. overnight. On the second day, after washed 3 times in PBS, the sections were incubated with Cy2-conjugated donkey anti-rat IgG for 30 min at RT. After wash, the sections were furthered stained with FITC conjugated anti-CD4 for I hour at RT. To determine the macrophage polarization, sections were double stained with anti-CD68 and iNOS (M1) or CD206 (M2). DAPI were used to stain the nuclei. The fluorescence intensity of cells was quantified by Image J software.

cPLA2 = biological target: T1, cPLA2 (Mus musculus, UniProt P47713); assay: CETSA assay in RAW264.7 cells; assay type: binding; design: endogenous in cells; host or cells: RAW264.7; conditions: for EC50: CETSA at 49° C., 0.001 μM to 100 μM, read-out: EC50 of prevention of cPLA2 denaturation (isothermal dose response)
T1 sequence (P47713 1-748): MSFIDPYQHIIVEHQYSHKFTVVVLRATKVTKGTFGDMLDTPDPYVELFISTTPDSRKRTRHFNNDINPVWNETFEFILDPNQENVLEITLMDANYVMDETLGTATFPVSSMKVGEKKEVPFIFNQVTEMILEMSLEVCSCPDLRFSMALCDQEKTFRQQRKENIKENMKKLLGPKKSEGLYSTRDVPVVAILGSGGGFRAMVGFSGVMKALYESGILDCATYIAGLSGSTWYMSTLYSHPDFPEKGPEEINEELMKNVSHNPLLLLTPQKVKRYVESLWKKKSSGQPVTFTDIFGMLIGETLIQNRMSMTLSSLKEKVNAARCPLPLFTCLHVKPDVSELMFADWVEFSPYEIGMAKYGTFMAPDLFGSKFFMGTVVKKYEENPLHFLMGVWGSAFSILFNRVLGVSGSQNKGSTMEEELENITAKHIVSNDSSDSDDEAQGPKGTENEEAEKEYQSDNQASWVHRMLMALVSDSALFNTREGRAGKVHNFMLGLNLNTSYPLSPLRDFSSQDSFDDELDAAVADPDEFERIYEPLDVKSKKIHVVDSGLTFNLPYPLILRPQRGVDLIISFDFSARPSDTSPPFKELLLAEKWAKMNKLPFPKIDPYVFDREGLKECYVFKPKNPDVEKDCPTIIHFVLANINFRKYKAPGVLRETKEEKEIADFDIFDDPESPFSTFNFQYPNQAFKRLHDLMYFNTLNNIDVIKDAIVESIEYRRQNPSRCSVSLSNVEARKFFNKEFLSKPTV
Procedure: CETSA assay. RAW264.7 cells were treated with FFD (10 μM)/TFD (1 μM) for 1 hour in a 37° C. incubator with 5% CO2. Cells were harvested and divided equally into different tubes, after which the cells were heated to different temperatures for 3 minutes. After lysis via 3 repeated freeze-thaw cycles, samples underwent centrifugation at 20000 g and supernatants were collected for analysis. For the isothermal dose response, a series of ten-fold change concentrations (ranged from 0.001 μM to 100 μM) of FFD/TFD were used to treat cells and no variation in temperature was introduced. The remaining steps are the same as previously reported^5.

DBA/1J mice = assay: Collagen induced arthritis model in DBA/1J mice; conditions: for loss of cartilage (Safranin O staining of ankle) / serum levels of IL-1β and IL-6 / arthritis clinical scores and incidence / onset of disease: prevention; for arthritis clinical scores and incidence / onset of disease: oral daily from 18 days after immunization, FFD 10 mg/kg, TFD 50 mg/kg; for disease scores: therapeutic, treatment initiated at clinical score of ˜5 points, FFD 0.4, 2, 10 mg/kg, TFD 2, 10, 50 mg/kg oral, 24 days

For CC(C)(C(=O)O)c1ccc(C(O)CCCN2CCC(C(O)(c3ccccc3)c3ccccc3)CC2)cc1 (stereo not drawn) [fexofenadine], which “in vivo inhibition of the TNF-α/NF-κB pathway” value (TNF-α/NF-κB pathway) is on record?
Its value is “dose-dependent inhibition”.

And the “TNF-tg:NF-κB activated luciferase in vivo” value (TNF-α/NF-κB pathway)?
Its value is “effectively inhibit”.

And the “effect of suppression of H1R1 on the inhibition of TNF-induced cytokine release” value (TNF-α)?
Its value is “did not affect”.

What about the “inhibition of TNF-α activity (IL-1β, IL-6 release) in cPLA2 knockout cells” value (TNF-α; cPLA2 KO RAW264.7 cells) of the same molecule?
The value was “entirely or almost entirely lost”.

And the “anti-inflammatory M2 macrophages” value (M1 and M2 macrophages)?
Its value is “markedly increased”.

What about the “inflammatory M1 macrophages” value (M1 and M2 macrophages) of the same molecule?
The value was “significantly inhibited”.

And the EC50 (cPLA2)?
The EC50 was 102 nM.

What about the “loss of cartilage (Safranin O staining of ankle)” value (DBA/1J mice) of the same molecule?
The value was “prevented the loss of cartilage”.

And the “serum levels of IL-1β and IL-6” value (DBA/1J mice)?
Its value is “significantly reduced”.

What about the “arthritis clinical scores and incidence” value (DBA/1J mice) of the same molecule?
The value was “significantly decrease”.

What about the onset of disease (DBA/1J mice) of the same molecule?
The onset of disease was “delay the onset”.

And the disease scores (DBA/1J mice)?
The disease scores was “dose-dependently ameliorated”.

What does the source list for CC(C)(C)c1ccc(C(O)CCCN2CCC(C(O)(c3ccccc3)c3ccccc3)CC2)cc1 (stereo not drawn) [terfenadine]?
in vivo inhibition of the TNF-α/NF-κB pathway (TNF-α/NF-κB pathway): dose-dependent inhibition; TNF-tg:NF-κB activated luciferase in vivo (TNF-α/NF-κB pathway): effectively inhibit; effect of suppression of H1R1 on the inhibition of TNF-induced cytokine release (TNF-α): did not affect; anti-inflammatory M2 macrophages (M1 and M2 macrophages): markedly increased; inflammatory M1 macrophages (M1 and M2 macrophages): significantly inhibited; EC50 (cPLA2): 1.45 nM; Tm of cPLA2 (CETSA melt curve) (cPLA2; RAW264.7 cells, FFD 10 μM, TFD 1 μM, 1 hour, control DMSO 46.09): 49.08 °C; loss of cartilage (Safranin O staining of ankle) (DBA/1J mice): prevented the loss of cartilage; serum levels of IL-1β and IL-6 (DBA/1J mice): significantly reduced; arthritis clinical scores and incidence (DBA/1J mice): significantly decrease; onset of disease (DBA/1J mice): delay the onset; disease scores (DBA/1J mice): dose-dependently ameliorated
